Here are results for twelve compounds from US4535090A, “3,5-Diphenyl-1H-1,2,4-triazoles pharmaceutical compositions and uses” (Gruppo Lepetit S.p.A., priority 1981, dated 1985).

Like-named read-outs stand apart in the source and are kept apart here.

For this assay, the system named is pregnancy in female Sprague Dawley rats. In words: Pregnancy termination activity in rats after a single subcutaneous injection at day 7 of gestation. The class given is in vivo, rat (Sprague Dawley). The settings on record: rat, single s.c. injection; for ED50: sc, autopsy day 16, read-out: ED50 (dose terminating pregnancy, absence of live fetuses, in 50% of the treated animals); for ED50 (dose terminating pregnancy, absence of live fetuses, in 50% of the treated animals): autopsy day 16. Here is the method:
In particular, female Sprague Dawley rats weighing 200-230 g were mated and the presence of sperm in the vagina was taken as evidence of mating. The day the sperm was detected, was considered day one of pregnancy. Pregnancy was later confirmed at the time of autopsy by the presence of implantation sites in the uterus.
Test compounds dissolved in sesame oil containing 20% benzyl benzoate (or suspended if insoluble), were administered subcutaneously, in a single injection, on day 7 of gestation. The animals were then autopsied on day 16 of pregnancy and the uteri were examined for evidence of pregnancy (implantation sites, fetal resorption or live fetuses), hemorrage, and evidence of abnormalities of the uterus, placenta or fetuses.

Where [1] appears, read: dissolved in sesame oil containing 20% benzyl benzoate (or suspended if insoluble).

As for `CCCCCCCCCC(=O)OCc1ccccc1-c1nc(-c2ccc(OC)c(OC)c2)n[nH]1` [Example 8, 5-(2-decanoyloxymethylphenyl)-3-(3,4-dimethoxyphenyl)-1H-1,2,4-triazole], the ED50 (commonly the dose that gives a 50% effect, or the effect in half of the subjects) under setting [1] amounted to 10 mg/kg. For “1-hexanoyl-3(5)-(2-hexanoyloxymethylphenyl)-5(3)-(3-methoxyphenyl)-1H-1,2,4-triazole [Example 11]”, under setting [1], the “ED50 (dose terminating pregnancy, absence of live fetuses, in 50% of the treated animals)” value was 8 mg/kg. For the compound “1-acetyl-3(5)-(2-decanoyloxymethylphenyl)-5(3)-(3,4-dimethoxyphenyl)-1H-1,2,4-triazole [Example 10]”, the “ED50 (dose terminating pregnancy, absence of live fetuses, in 50% of the treated animals)” value under setting [1] is 4 mg/kg. In the case of `CCCCCCCCCC(=O)OCc1ccccc1-c1nc(-c2cccc(OCC)c2)n[nH]1` [Example 7], the 50% effective dose (ED50) under setting [1] was 2 mg/kg.

`CCCCCCCCCCCC(=O)OCc1ccccc1-c1nc(-c2ccc(OC)c(OC)c2)n[nH]1` [Example 6, 5-(2-dodecanoyloxymethylphenyl)-3-(3,4-dimethoxyphenyl)-1H-1,2,4-triazole]: the ED50 under setting [1] stood at 2 mg/kg. In the case of `CCCCCCCCCCCC(=O)OCc1ccccc1-c1nc(-c2cccc(OC)c2)n[nH]1` [Example 2, 5-(2-dodecanoyloxymethylphenyl)-3-(3-methoxyphenyl)-1H-1,2,4-triazole], the median effective dose (ED50) under setting [1] came to 2 mg/kg. `COc1cccc(-c2n[nH]c(-c3ccccc3CO)n2)c1` [5-(2-Hydroxymethylphenyl)-3-(3-methoxyphenyl)-1H--1,2,4-triazole, reference compound]: for the setting “given suspended instead of dissolved”, the ED50 came out at 40 mg/kg. For `CCCCCCCCCC(=O)OCc1ccccc1-c1nc(-c2cccc(OC)c2)n[nH]1` [Example 4, 5-(2-decanoyloxymethylphenyl)-3-(3-methoxyphenyl)-1H-1,2,4-triazole], under setting [1], the ED50 was found to be 2 mg/kg. As for `CCCCCCCC(=O)OCc1ccccc1-c1nc(-c2cccc(OC)c2)n[nH]1` [Example 1, 3-(3-methoxyphenyl)-5-(2-octanoyloxymethylphenyl)-1H-1,2,4-triazole], the ED50 under setting [1] is 13 mg/kg. As for `CCCCCC(=O)OCc1ccccc1-c1nc(-c2cccc(OCC)c2)n[nH]1` [Example 9, 3-(3-ethoxyphenyl)-5-(2-hexanoyloxymethylphenyl)-1H-1,2,4-triazole], the 50% effective dose (ED50) under setting [1] was found to be 7 mg/kg.

Take `CCCCCCCC(=O)OCc1ccccc1-c1nc(-c2cccc(OCC)c2)n[nH]1` [Example 3, 3-(3-ethoxyphenyl)-5-(2-octanoyloxymethylphenyl)-1H-1,2,4-triazole]: the ED50 under setting [1] amounted to 4 mg/kg. Consider `COc1cccc(-c2n[nH]c(-c3ccccc3COC(C)=O)n2)c1` [5-(2-Acetyloxymethylphenyl)-3-(3-methoxyphenyl)-1H--1,2,4-triazole, reference compound], for which, under setting [1], the ED50 came to 50 mg/kg.
